# Counter-ions that a name gives are not always drawn.
# Test system: ISC-enriched organoids
# Assay: Primary screen, 384-well 2.5-D organoid differentiation (ENR+CD, 6 days, Target Selective Inhibitor Library, vs whole-plate median): ATP (CellTiter-Glo 3D, CTG)
# [1] = Dose 0.08 uM, standard z score of FC
# [2] = Dose 0.40 uM, standard z score of FC
# [3] = Dose 2.00 uM, standard z score of FC
# [4] = Dose 10.00 uM, standard z score of FC
# [5] = primary screen, dose 0.08 uM, standard z score of FC
# [6] = primary screen, dose 0.40 uM, standard z score of FC
# [7] = primary screen, dose 2.00 uM, standard z score of FC
# [8] = primary screen, dose 10.00 uM, standard z score of FC
smiles,measurement,setting,value
C=CC(=O)Nc1cccc(Oc2nc(Nc3ccc(N4CCN(C)CC4)cc3OC)ncc2Cl)c1 [WZ4002],Z.CTG (standard z score),dose 0.08 uM,0.748
same,Z.CTG (standard z score),dose 0.40 uM,0.196
same,Z.CTG (standard z score),dose 2.00 uM,0.360
same,Z.CTG (standard z score),dose 10.00 uM,−2.248
c1ccc(CC2=NCCN2)cc1 [Tolazoline HCl],Z.CTG (standard z score),dose 0.08 uM,0.585
same,Z.CTG (standard z score),dose 0.40 uM,0.530
same,Z.CTG (standard z score),dose 2.00 uM,−0.122
same,Z.CTG (standard z score),dose 10.00 uM,−0.496
Oc1nc(-c2ccc(C(F)(F)F)cc2)nc2c1CSCC2 [XAV-939],Z.CTG (standard z score),dose 0.08 uM,−0.792
same,Z.CTG (standard z score),dose 0.40 uM,−0.065
same,Z.CTG (standard z score),dose 2.00 uM,−0.847
same,Z.CTG (standard z score),dose 10.00 uM,−2.147
COc1ccccc1OCCNCC(O)COc1cccc2[nH]c3ccccc3c12 (stereo not shown) [Carvedilol],Z.CTG,[1],0.136
same,Z.CTG,[2],−0.034
same,Z.CTG,[3],−0.360
same,Z.CTG,[4],−0.577
COc1cc2c(cc1OC)[C@@H]1Cc3ccc(OC)c(OC)c3CN1CC2 [Rotundine],Z.CTG (standard z score),"Dose 0.08 uM, primary screen",0.857
same,Z.CTG (standard z score),"Dose 0.40 uM, primary screen",0.818
same,Z.CTG (standard z score),"Dose 2.00 uM, primary screen",0.454
same,Z.CTG (standard z score),"Dose 10.00 uM, primary screen",0.543
CC(C)OC(=O)OCOP(=O)(CO[C@H](C)Cn1cnc2c(N)ncnc21)OCOC(=O)OC(C)C [Tenofovir Disoproxil Fumarate],Z.CTG (standard z score),dose 0.08 uM,0.172
same,Z.CTG (standard z score),dose 0.40 uM,−0.004
same,Z.CTG (standard z score),dose 2.00 uM,−0.378
same,Z.CTG (standard z score),dose 10.00 uM,−1.034
C=C[C@@]1(C)CC(=O)[C@]2(O)[C@@]3(C)[C@@H](O)CCC(C)(C)[C@@H]3[C@H](O)[C@H](OC(C)=O)[C@@]2(C)O1 [Forskolin],Z.CTG,[1],−0.508
same,Z.CTG,[2],−0.418
same,Z.CTG,[3],−0.789
same,Z.CTG,[4],−0.284
CCCc1nc2c(C)cc(-c3nc4ccccc4n3C)cc2n1Cc1ccc(-c2ccccc2C(=O)O)cc1 [Telmisartan],Z.CTG (standard z score),"Dose 0.08 uM, primary screen",0.320
same,Z.CTG (standard z score),"Dose 0.40 uM, primary screen",0.584
same,Z.CTG (standard z score),"Dose 2.00 uM, primary screen",0.153
same,Z.CTG (standard z score),"Dose 10.00 uM, primary screen",0.549
CC(=O)O[C@]1(C(C)=O)CC[C@H]2[C@@H]3C=C(Cl)C4=CC(=O)[C@@H]5C[C@@H]5[C@]4(C)[C@H]3CC[C@@]21C [Cyproterone Acetate],Z.CTG,[1],−0.263
same,Z.CTG,[2],0.122
same,Z.CTG,[3],−0.341
same,Z.CTG,[4],−0.414
O=C(NC(Cc1cc(=O)[nH]c2ccccc12)C(=O)O)c1ccc(Cl)cc1 (stereo not shown) [Rebamipide],Z.CTG (standard z score),"Dose 0.08 uM, primary screen",−0.612
same,Z.CTG (standard z score),"Dose 0.40 uM, primary screen",−1.217
same,Z.CTG (standard z score),"Dose 2.00 uM, primary screen",−0.484
same,Z.CTG (standard z score),"Dose 10.00 uM, primary screen",−0.672
COc1ccc2cccc(CCNC(C)=O)c2c1 [Agomelatine],Z.CTG,[5],0.252
same,Z.CTG,[6],0.193
same,Z.CTG,[7],−0.472
same,Z.CTG,[8],0.056
COCCOc1ccc2c(c1)ncn2-c1ccc2cccc(N3CCC(N)CC3)c2n1 [CP-673451],Z.CTG,[1],0.166
same,Z.CTG,[2],0.445
same,Z.CTG,[3],0.018
same,Z.CTG,[4],−0.616
Cc1c(Cc2ccc3ccccc3n2)c2cc(F)ccc2n1CC(=O)O [OC000459],Z.CTG,[1],0.184
same,Z.CTG,[2],−0.155
same,Z.CTG,[3],0.210
same,Z.CTG,[4],0.211
Nc1nc(N)c2nc(-c3ccccc3)c(N)nc2n1 [Triamterene],Z.CTG (standard z score),dose 0.08 uM,−0.070
same,Z.CTG (standard z score),dose 0.40 uM,−0.394
same,Z.CTG (standard z score),dose 2.00 uM,−0.241
same,Z.CTG (standard z score),dose 10.00 uM,−1.103
CCCSc1nc(N[C@@H]2C[C@H]2c2ccc(F)c(F)c2)c2nnn([C@@H]3C[C@H](OCCO)[C@@H](O)[C@H]3O)c2n1 [Ticagrelor],Z.CTG (standard z score),dose 0.08 uM,−0.190
same,Z.CTG (standard z score),dose 0.40 uM,−0.069
same,Z.CTG (standard z score),dose 2.00 uM,−0.645
same,Z.CTG (standard z score),dose 10.00 uM,−0.576
NC(=O)N1c2ccccc2CC(=O)c2ccccc21 [Oxcarbazepine],Z.CTG,[1],−0.051
same,Z.CTG,[2],−0.247
same,Z.CTG,[3],−0.197
same,Z.CTG,[4],−0.359
Nc1cccc2c1C(=O)N(C1CCC(=O)NC1=O)C2=O (stereo not shown) [Pomalidomide],Z.CTG,[1],0.150
same,Z.CTG,[2],0.536
same,Z.CTG,[3],−0.517
same,Z.CTG,[4],−0.729
C[C@@H](O[C@H]1OCCN(Cc2n[nH]c(=O)[nH]2)[C@H]1c1ccc(F)cc1)c1cc(C(F)(F)F)cc(C(F)(F)F)c1 [Aprepitant],Z.CTG,[5],0.747
same,Z.CTG,[6],0.962
same,Z.CTG,[7],0.346
same,Z.CTG,[8],0.121
CCOc1ccccc1-n1c(C(C)N2CCN(C(=O)COc3ccc(Cl)cc3)CC2)nc2ccccc2c1=O (stereo not shown) [Erastin],Z.CTG,[1],0.537
same,Z.CTG,[2],0.681
same,Z.CTG,[3],0.907
same,Z.CTG,[4],0.711
CN(C)CCOc1ccc(/C(=C(/CCCl)c2ccccc2)c2ccccc2)cc1 [Toremifene Citrate],Z.CTG (standard z score),dose 0.08 uM,0.822
same,Z.CTG (standard z score),dose 0.40 uM,0.285
same,Z.CTG (standard z score),dose 2.00 uM,−2.417
same,Z.CTG (standard z score),dose 10.00 uM,−3.335
Cc1c(-c2ccc(O)cc2)n(Cc2ccc(OCCN3CCCCCC3)cc2)c2ccc(O)cc12 [Bazedoxifene HCl],Z.CTG,[5],1.009
same,Z.CTG,[6],0.873
same,Z.CTG,[7],−1.862
same,Z.CTG,[8],−2.741
O=C(/C=C/c1ccc(O)c(O)c1)OCCc1ccccc1 [Caffeic Acid Phenethyl Ester],Z.CTG,[1],0.627
same,Z.CTG,[2],−0.026
same,Z.CTG,[3],−0.152
same,Z.CTG,[4],−1.221
Cc1ccccc1C(=O)Nc1ccc(C(=O)N2CCCC(O)c3cc(Cl)ccc32)c(C)c1 (stereo not shown) [Tolvaptan],Z.CTG (standard z score),dose 0.08 uM,0.227
same,Z.CTG (standard z score),dose 0.40 uM,−0.019
same,Z.CTG (standard z score),dose 2.00 uM,−0.225
same,Z.CTG (standard z score),dose 10.00 uM,−0.249
C[C@@H](c1ncncc1F)[C@](O)(Cn1cncn1)c1ccc(F)cc1F [Voriconazole],Z.CTG (standard z score),dose 0.08 uM,0.617
same,Z.CTG (standard z score),dose 0.40 uM,0.730
same,Z.CTG (standard z score),dose 2.00 uM,0.680
same,Z.CTG (standard z score),dose 10.00 uM,0.783
CC[C@H](NC(=O)[C@H](C)NC)C(=O)N1C[C@@H](O)C[C@H]1Cc1c(-c2[nH]c3cc(F)ccc3c2C[C@@H]2C[C@H](O)CN2C(=O)[C@H](CC)NC(=O)[C@H](C)NC)[nH]c2cc(F)ccc12 [Birinapant],Z.CTG,[5],−0.615
same,Z.CTG,[6],0.226
same,Z.CTG,[7],0.542
same,Z.CTG,[8],0.293
CC(C)NCC(O)COc1cccc2ccccc12 (stereo not shown) [Propranolol HCl],Z.CTG (standard z score),"Dose 0.08 uM, primary screen",0.158
same,Z.CTG (standard z score),"Dose 0.40 uM, primary screen",0.129
same,Z.CTG (standard z score),"Dose 2.00 uM, primary screen",0.279
same,Z.CTG (standard z score),"Dose 10.00 uM, primary screen",0.400
C#CCC(Cc1cnc2nc(N)nc(N)c2n1)c1ccc(C(=O)N[C@@H](CCC(=O)O)C(=O)O)cc1 (stereo partly shown) [Pralatrexate],Z.CTG (standard z score),"Dose 0.08 uM, primary screen",−1.551
same,Z.CTG (standard z score),"Dose 0.40 uM, primary screen",−2.036
same,Z.CTG (standard z score),"Dose 2.00 uM, primary screen",−1.626
same,Z.CTG (standard z score),"Dose 10.00 uM, primary screen",−2.201
CC(C)NCC(O)COc1ccc(COCCOC(C)C)cc1 (stereo not shown) [Bisoprolol fumarate],Z.CTG,[5],−0.249
same,Z.CTG,[6],−0.136
same,Z.CTG,[7],−0.048
same,Z.CTG,[8],0.139
O=S(=O)(c1ccccc1)N(CC(F)(F)F)c1ccc(C(O)(C(F)(F)F)C(F)(F)F)cc1 [T0901317],Z.CTG (standard z score),"Dose 0.08 uM, primary screen",0.112
same,Z.CTG (standard z score),"Dose 0.40 uM, primary screen",0.426
same,Z.CTG (standard z score),"Dose 2.00 uM, primary screen",0.228
same,Z.CTG (standard z score),"Dose 10.00 uM, primary screen",0.272
C[C@H](CS)C(=O)N1CCC[C@H]1C(=O)O [Captopril],Z.CTG,[1],−0.134
same,Z.CTG,[2],0.257
same,Z.CTG,[3],0.294
same,Z.CTG,[4],0.255
COc1ccc2c(c1)C(=O)N(CCc1ccc(S(=O)(=O)NC(=O)NC3CCCCC3)cc1)C(=O)C2(C)C [Gliquidone],Z.CTG,[1],0.297
same,Z.CTG,"Dose 0.40 uM, primary screen, standard z score",0.247
same,Z.CTG,"Dose 2.00 uM, primary screen, standard z score",0.588
same,Z.CTG,"Dose 10.00 uM, primary screen, standard z score",0.320
Cn1c(N2CCCCS2(=O)=O)nc(C(=O)NCc2ccc(F)cc2)c(O)c1=O [BMS-707035],Z.CTG,[5],0.759
same,Z.CTG,[6],0.568
same,Z.CTG,[7],0.667
same,Z.CTG,[8],0.330
CN[C@H]1CC[C@@H](c2ccc(Cl)c(Cl)c2)c2ccccc21 [Sertraline HCl],Z.CTG (standard z score),"Dose 0.08 uM, primary screen",−0.189
same,Z.CTG (standard z score),"Dose 0.40 uM, primary screen",0.208
same,Z.CTG (standard z score),"Dose 2.00 uM, primary screen",0.157
same,Z.CTG (standard z score),"Dose 10.00 uM, primary screen",0.104
COc1ccc(-n2nc(C(N)=O)c3c2C(=O)N(c2ccc(N4CCCCC4=O)cc2)CC3)cc1 [Apixaban],Z.CTG,[5],−0.212
same,Z.CTG,[6],0.266
same,Z.CTG,[7],−0.144
same,Z.CTG,[8],−0.185
COc1cc2c(cc1OC)CN(CCc1ccc(NC(=O)c3cc(OC)c(OC)cc3NC(=O)c3cnc4ccccc4c3)cc1)CC2 [Tariquidar],Z.CTG (standard z score),"Dose 0.08 uM, primary screen",−0.280
same,Z.CTG (standard z score),"Dose 0.40 uM, primary screen",0.128
same,Z.CTG (standard z score),"Dose 2.00 uM, primary screen",0.899
same,Z.CTG (standard z score),"Dose 10.00 uM, primary screen",0.543
O=c1ncccn1[C@@H]1O[C@H](CO)[C@@H](O)[C@H]1O [Zebularine],Z.CTG (standard z score),dose 0.08 uM,0.085
same,Z.CTG (standard z score),dose 0.40 uM,0.000
same,Z.CTG (standard z score),dose 2.00 uM,−0.213
same,Z.CTG (standard z score),dose 10.00 uM,−0.399
CCO[C@@H]1OC(=O)C[C@@H]1NC(=O)[C@@H]1CCCN1C(=O)[C@@H](NC(=O)c1ccc(N)c(Cl)c1)C(C)(C)C [VX-765],Z.CTG (standard z score),dose 0.08 uM,0.368
same,Z.CTG (standard z score),dose 0.40 uM,0.555
same,Z.CTG (standard z score),dose 2.00 uM,0.393
same,Z.CTG (standard z score),dose 10.00 uM,0.608
O=C(NOC[C@H](O)CO)c1ccc(F)c(F)c1Nc1ccc(I)cc1F [PD0325901],Z.CTG,[1],−1.200
same,Z.CTG,[2],−2.760
same,Z.CTG,[3],−2.072
same,Z.CTG,[4],−2.301
CN1CC(=O)N2[C@H](c3ccc4c(c3)OCO4)c3[nH]c4ccccc4c3C[C@@H]2C1=O [Tadalafil],Z.CTG (standard z score),"Dose 0.08 uM, primary screen",−0.046
same,Z.CTG (standard z score),"Dose 0.40 uM, primary screen",0.863
same,Z.CTG (standard z score),"Dose 2.00 uM, primary screen",1.042
same,Z.CTG (standard z score),"Dose 10.00 uM, primary screen",0.644
CCN(c1cc(-c2ccc(CN3CCOCC3)cc2)cc(C(=O)NCc2c(C)cc(C)[nH]c2=O)c1C)C1CCOCC1 [EPZ-6438],Z.CTG,[1],0.107
same,Z.CTG,[2],0.178
same,Z.CTG,[3],−0.163
same,Z.CTG,[4],0.802
